Experimental data as given in the NIST ThermoML archive (doi:10.1016/j.jct.2016.09.030).

Assay: xn = mol fraction of the nth substance listed
Details: 100 kPa, Liquid; for viscosity: Concentric cylinders viscometry; for mass density: Vibrating tube method

CCCCCCCC(=O)OCC [ethyl octanoate] + CC(C)CO
Details | mass density [kg/m3] | viscosity [mPa·s]
288.15 K, x1 = 0.1001 | 817.82 | 3.229
288.15 K, x1 = 0.1999 | 827.81 | 2.537
288.15 K, x1 = 0.3 | 836.01 | 2.169
288.15 K, x1 = 0.4 | 843.08 | 1.977
288.15 K, x1 = 0.5 | 849.18 | 1.851
288.15 K, x1 = 0.5999 | 854.5 | 1.766
288.15 K, x1 = 0.6999 | 859.21 | 1.703
288.15 K, x1 = 0.7999 | 863.44 | 1.677
288.15 K, x1 = 0.9 | 867.3 | 1.677
288.15 K, x1 = 1 | 870.88 | 1.686
293.15 K, x1 = 0.1001 | 813.83 | 2.762
293.15 K, x1 = 0.1999 | 823.71 | 2.22
293.15 K, x1 = 0.3 | 831.83 | 1.921
293.15 K, x1 = 0.4 | 838.85 | 1.768
293.15 K, x1 = 0.5 | 844.91 | 1.661
293.15 K, x1 = 0.5999 | 850.21 | 1.593
293.15 K, x1 = 0.6999 | 854.9 | 1.543
293.15 K, x1 = 0.7999 | 859.12 | 1.523
293.15 K, x1 = 0.9 | 862.98 | 1.524
293.15 K, x1 = 1 | 866.58 | 1.537
298.15 K, x1 = 0.1001 | 809.81 | 2.416
298.15 K, x1 = 0.1999 | 819.58 | 1.961
298.15 K, x1 = 0.3 | 827.63 | 1.716
298.15 K, x1 = 0.4 | 834.6 | 1.592
298.15 K, x1 = 0.5 | 840.63 | 1.503
298.15 K, x1 = 0.5999 | 845.9 | 1.447
298.15 K, x1 = 0.6999 | 850.58 | 1.407
298.15 K, x1 = 0.7999 | 854.81 | 1.393
298.15 K, x1 = 0.9 | 858.67 | 1.393
298.15 K, x1 = 1 | 862.28 | 1.41
303.15 K, x1 = 0.1001 | 805.76 | 2.111
303.15 K, x1 = 0.1999 | 815.43 | 1.74
303.15 K, x1 = 0.3 | 823.41 | 1.541
303.15 K, x1 = 0.4 | 830.32 | 1.44
303.15 K, x1 = 0.5 | 836.32 | 1.364
303.15 K, x1 = 0.5999 | 841.57 | 1.321
303.15 K, x1 = 0.6999 | 846.25 | 1.289
303.15 K, x1 = 0.7999 | 850.48 | 1.278
303.15 K, x1 = 0.9 | 854.35 | 1.283
303.15 K, x1 = 1 | 857.98 | 1.298
308.15 K, x1 = 0.1001 | 801.68 | 1.854
308.15 K, x1 = 0.1999 | 811.24 | 1.554
308.15 K, x1 = 0.3 | 819.16 | 1.389
308.15 K, x1 = 0.4 | 826.03 | 1.307
308.15 K, x1 = 0.5 | 832 | 1.246
308.15 K, x1 = 0.5999 | 837.24 | 1.21
308.15 K, x1 = 0.6999 | 841.91 | 1.186
308.15 K, x1 = 0.7999 | 846.14 | 1.179
308.15 K, x1 = 0.9 | 850.03 | 1.184
308.15 K, x1 = 1 | 853.68 | 1.2
313.15 K, x1 = 0.1001 | 797.55 | 1.642
313.15 K, x1 = 0.1999 | 807.02 | 1.399
313.15 K, x1 = 0.3 | 814.88 | 1.264
313.15 K, x1 = 0.4 | 821.71 | 1.196
313.15 K, x1 = 0.5 | 827.66 | 1.148
313.15 K, x1 = 0.5999 | 832.89 | 1.119
313.15 K, x1 = 0.6999 | 837.56 | 1.1
313.15 K, x1 = 0.7999 | 841.8 | 1.096
313.15 K, x1 = 0.9 | 845.7 | 1.103
313.15 K, x1 = 1 | 849.37 | 1.118
318.15 K, x1 = 0.1001 | 793.38 | 1.453
318.15 K, x1 = 0.1999 | 802.76 | 1.254
318.15 K, x1 = 0.3 | 810.56 | 1.144
318.15 K, x1 = 0.4 | 817.36 | 1.089
318.15 K, x1 = 0.5 | 823.29 | 1.05
318.15 K, x1 = 0.5999 | 828.51 | 1.027
318.15 K, x1 = 0.6999 | 833.19 | 1.013
318.15 K, x1 = 0.7999 | 837.45 | 1.012
318.15 K, x1 = 0.9 | 841.37 | 1.02
318.15 K, x1 = 1 | 845.06 | 1.035
323.15 K, x1 = 0.1001 | 789.15 | 1.308
323.15 K, x1 = 0.1999 | 798.46 | 1.144
323.15 K, x1 = 0.3 | 806.21 | 1.052
323.15 K, x1 = 0.4 | 812.99 | 1.006
323.15 K, x1 = 0.5 | 818.9 | 0.975
323.15 K, x1 = 0.5999 | 824.13 | 0.9556
323.15 K, x1 = 0.6999 | 828.81 | 0.9463
323.15 K, x1 = 0.7999 | 833.08 | 0.9462
323.15 K, x1 = 0.9 | 837.02 | 0.9546
323.15 K, x1 = 1 | 840.74 | 0.9708
